These results are taken from ChEMBL document CHEMBL4184222, “A multifaceted approach to identify non-specific enzyme inhibition: Application to Mycobacterium tuberculosis shikimate kinase” (Bioorg Med Chem Lett, 2018).

As a reminder, the inhibition is the change of the read-out against control, counted positive when it falls. As usually defined, the IC50 is the concentration needed to halve the response being measured. The IC90 is the point of the concentration-response curve where the effect stands at 90%. The low end stands for an effect from little substance, the high end for a need for much substance.

For series [1], the system named is Mycobacterium tuberculosis. Put plainly: Inhibition of Mycobacterium tuberculosis shikimate kinase assessed as reduction in S3P production at 30 uM pre-incubated with 0.02 uM enzyme for 30 mins before ATP and shikimate substrate addition in absence of Triton X-100 by LC-MS assay.
The subject of series [2] is Mycobacterium tuberculosis. Put plainly: Inhibition of Mycobacterium tuberculosis shikimate kinase assessed as reduction in S3P production at 30 uM pre-incubated with 0.02 uM enzyme for 30 mins before ATP and shikimate substrate addition in presence of Triton X-100 by LC-MS assay.
Series [3] has as its system Mycobacterium tuberculosis. Put plainly: Inhibition of Mycobacterium tuberculosis shikimate kinase assessed as reduction in S3P production at 30 uM pre-incubated with 0.2 uM enzyme for 30 mins before ATP and shikimate substrate addition in absence of Triton X-100 by LC-MS assay.
Series [4] relates to Mycobacterium tuberculosis. Put plainly: Inhibition of Mycobacterium tuberculosis shikimate kinase assessed as reduction in S3P production at 30 uM pre-incubated with 0.2 uM enzyme for 30 mins before ATP and shikimate substrate addition in presence of Triton X-100 by LC-MS assay.
The nature of series [5]: Inhibition of Mycobacterium tuberculosis shikimate kinase assessed as reduction in S3P production […] pre-incubated with 0.015 uM enzyme for 30 mins before ATP and shikimate substrate addition by LC-MS assay.
Series [6] can be described thus: Aggregation property of the compound in ammonium acetate buffer at pH 7.6 assessed as light scattering intensity counts at 30 uM in absence of Triton X-100 by dynamic light scattering method. The class given is physicochemical. To be noted: pH 7.6, 30 µM.
A short description of series [7]: Aggregation property of the compound in ammonium acetate buffer at pH 7.6 assessed as light scattering intensity counts at 10 uM in absence of Triton X-100 by dynamic light scattering method. It counts as physicochemical. To be noted: pH 7.6, 10 µM.
A short description of series [8]: Aggregation property of the compound in ammonium acetate buffer at pH 7.6 assessed as light scattering intensity counts at 3 uM in absence of Triton X-100 by dynamic light scattering method. It counts as physicochemical. To be noted: pH 7.6, 3 µM.
Series [9] can be described thus: Aggregation property of the compound in ammonium acetate buffer at pH 7.6 assessed as particle size at 30 uM in absence of Triton X-100 by dynamic light scattering method. To be noted: pH 7.6, 30 µM. It counts as physicochemical.
Series [10] in a line: Aggregation property of the compound in ammonium acetate buffer at pH 7.6 assessed as particle size at 10 uM in absence of Triton X-100 by dynamic light scattering method. The class given is physicochemical. To be noted: pH 7.6, 10 µM.
Series [11] can be described thus: Aggregation property of the compound in ammonium acetate buffer at pH 7.6 assessed as particle size at 3 uM in absence of Triton X-100 by dynamic light scattering method. The class given is physicochemical. To be noted: pH 7.6, 3 µM.
A short description of series [12]: Aggregation property of the compound in ammonium acetate buffer at pH 7.6 assessed as light scattering intensity counts at 30 uM in presence of Triton X-100 by dynamic light scattering method. It counts as physicochemical. To be noted: pH 7.6, 30 µM.
The nature of series [13]: Aggregation property of the compound in ammonium acetate buffer at pH 7.6 assessed as light scattering intensity counts at 10 uM in presence of Triton X-100 by dynamic light scattering method. The class given is physicochemical. To be noted: pH 7.6, 10 µM.
Series [14] in a line: Aggregation property of the compound in ammonium acetate buffer at pH 7.6 assessed as light scattering intensity counts at 3 uM in presence of Triton X-100 by dynamic light scattering method. The class given is physicochemical. To be noted: pH 7.6, 3 µM.
Series [15] can be described thus: Aggregation property of the compound in ammonium acetate buffer at pH 7.6 assessed as particle size at 30 uM in presence of Triton X-100 by dynamic light scattering method. To be noted: pH 7.6, 30 µM. The class given is physicochemical.
The nature of series [16]: Aggregation property of the compound in ammonium acetate buffer at pH 7.6 assessed as particle size at 10 uM in presence of Triton X-100 by dynamic light scattering method. It counts as physicochemical. To be noted: pH 7.6, 10 µM.
Series [17] in a line: Aggregation property of the compound in ammonium acetate buffer at pH 7.6 assessed as particle size at 3 uM in presence of Triton X-100 by dynamic light scattering method. It counts as physicochemical. To be noted: pH 7.6, 3 µM.
The nature of series [18]: Aggregation property of the compound in water at pH 7 assessed as light scattering intensity counts at 10 uM in absence of Triton X-100 by dynamic light scattering method. The class given is physicochemical. To be noted: buffer, pH 7, 10 µM.
The nature of series [19]: Aggregation property of the compound in water at pH 7 assessed as light scattering intensity counts at 30 uM in absence of Triton X-100 by dynamic light scattering method. It counts as physicochemical. To be noted: buffer, pH 7, 30 µM.
The nature of series [20]: Aggregation property of the compound in water at pH 7 assessed as light scattering intensity counts at 3 uM in absence of Triton X-100 by dynamic light scattering method. The class given is physicochemical. To be noted: buffer, pH 7, 3 µM.
A short description of series [21]: Aggregation property of the compound in water at pH 7 assessed as particle size at 30 uM in absence of Triton X-100 by dynamic light scattering method. To be noted: buffer, pH 7, 30 µM. It counts as physicochemical.
Series [22] can be described thus: Aggregation property of the compound in water at pH 7 assessed as particle size at 10 uM in absence of Triton X-100 by dynamic light scattering method. It counts as physicochemical. To be noted: buffer, pH 7, 10 µM.
Series [23] is described as follows: Aggregation property of the compound in water at pH 7 assessed as particle size at 3 uM in absence of Triton X-100 by dynamic light scattering method. The class given is physicochemical. To be noted: buffer, pH 7, 3 µM.
Series [24] in a line: Aggregation property of the compound in water at pH 7 assessed as light scattering intensity counts at 30 uM in presence of Triton X-100 by dynamic light scattering method. It counts as physicochemical. To be noted: buffer, pH 7, 30 µM.
The nature of series [25]: Aggregation property of the compound in water at pH 7 assessed as light scattering intensity counts at 10 uM in presence of Triton X-100 by dynamic light scattering method. To be noted: buffer, pH 7, 10 µM. The class given is physicochemical.
The nature of series [26]: Aggregation property of the compound in water at pH 7 assessed as light scattering intensity counts at 3 uM in presence of Triton X-100 by dynamic light scattering method. It counts as physicochemical. To be noted: buffer, pH 7, 3 µM.
A short description of series [27]: Aggregation property of the compound in water at pH 7 assessed as particle size at 30 uM in presence of Triton X-100 by dynamic light scattering method. The class given is physicochemical. To be noted: buffer, pH 7, 30 µM.
Series [28] can be described thus: Aggregation property of the compound in water at pH 7 assessed as particle size at 10 uM in presence of Triton X-100 by dynamic light scattering method. It counts as physicochemical. To be noted: buffer, pH 7, 10 µM.
A short description of series [29]: Aggregation property of the compound in water at pH 7 assessed as particle size at 3 uM in presence of Triton X-100 by dynamic light scattering method. It counts as physicochemical. To be noted: buffer, pH 7, 3 µM.
Series [30] can be described thus: Aggregation property of the compound in ammonium acetate buffer at pH 7.6 assessed as particle size at 30 uM in absence of Triton X-100 by transmission electron microscopy. It counts as physicochemical. To be noted: pH 7.6, 30 µM.
The nature of series [31]: Aggregation property of the compound in ammonium acetate buffer at pH 7.6 assessed as particle size at 30 uM in presence of Triton X-100 by transmission electron microscopy. To be noted: pH 7.6, 30 µM. It counts as physicochemical.
A short description of series [32]: Aggregation property of the compound in potassium phosphate buffer at pH 7.2 assessed as micelle formation by measuring peal broadening at 6.25 to 200 uM by one-dimensional 1H-NMR spectroscopy. To be noted: pH 7.2, 200 µM. The class given is physicochemical.
The test system of series [33] is Mycobacterium tuberculosis. Put plainly: Inhibition of Mycobacterium tuberculosis shikimate kinase assessed as reduction in S3P production at <50 uM pre-incubated for 30 mins before ATP and shikimate substrate addition by LC-MS assay.
A short description of series [34]: Inhibition of Mycobacterium tuberculosis shikimate kinase assessed as reduction in S3P production pre-incubated for 30 mins before ATP and shikimate substrate addition by LC-MS assay.
Series [35] deals with Mycobacterium tuberculosis. Put plainly: Antimycobacterial activity against Mycobacterium tuberculosis H37Rv. The class given is functional.
Series [36] can be described thus: Aggregation property of the compound in ammonium acetate buffer at pH 7.6 assessed as light scattering intensity counts at 100 uM in absence of Triton X-100 by dynamic light scattering method. It counts as physicochemical. To be noted: pH 7.6, 100 µM.
Series [37] can be described thus: Aggregation property of the compound in ammonium acetate buffer at pH 7.6 assessed as particle size at 100 uM in absence of Triton X-100 by dynamic light scattering method. The class given is physicochemical. To be noted: pH 7.6, 100 µM.
Series [38] in a line: Aggregation property of the compound in ammonium acetate buffer at pH 7.6 assessed as light scattering intensity counts at 100 uM in presence of Triton X-100 by dynamic light scattering method. It counts as physicochemical. To be noted: pH 7.6, 100 µM.
The nature of series [39]: Aggregation property of the compound in ammonium acetate buffer at pH 7.6 assessed as particle size at 100 uM in presence of Triton X-100 by dynamic light scattering method. The class given is physicochemical. To be noted: pH 7.6, 100 µM.
The nature of series [40]: Aggregation property of the compound in water at pH 7 assessed as particle size at 100 uM in presence of Triton X-100 by dynamic light scattering method. It counts as physicochemical. To be noted: buffer, pH 7, 100 µM.
Series [41] in a line: Aggregation property of the compound in water at pH 7 assessed as light scattering intensity counts at 100 uM in presence of Triton X-100 by dynamic light scattering method. To be noted: buffer, pH 7, 100 µM. The class given is physicochemical.
Series [42] is described as follows: Aggregation property of the compound in water at pH 7 assessed as particle size at 100 uM in absence of Triton X-100 by dynamic light scattering method. It counts as physicochemical. To be noted: buffer, pH 7, 100 µM.
Series [43] is described as follows: Aggregation property of the compound in water at pH 7 assessed as light scattering intensity counts at 100 uM in absence of Triton X-100 by dynamic light scattering method. The class given is physicochemical. To be noted: buffer, pH 7, 100 µM.
Series [44] in a line: Aggregation property of the compound in potassium phosphate buffer at pH 7.2 assessed as micelle formation by measuring peal broadening at 12.5 to 200 uM by one-dimensional 1H-NMR spectroscopy. The class given is physicochemical. To be noted: pH 7.2, 200 µM.

In brackets after ≈: the same amount, converted by molar mass.

`COc1cc(C=O)ccc1OCc1ccccc1COc1ccc(/C=C2/SC(=S)NC2=O)cc1OC`: the inhibition was determined as 96% in [1], 98% in series [2], 55% in [3] and 83% in [4]. Besides, the IC50 in series [5] came to 10.1 µM. For the same molecule, the Activity in series [6] worked out at 30 kCounts; in series [7] it was 4 kCounts; in series [8], 0 Counts; in series [9], 80 nm; in series [10], 0 nm; in [11] it was 0 nm. Further, the Activity in [12] stood at 5 kCounts; in [13] it was 4 kCounts; in series [14], 0 kCounts; in [15], 0 nm; in series [16] it was 0 nm; in series [17], 0 nm. In addition, the Activity in [18] came to 2 kCounts; in series [19], 30 kCounts; in [20], 0 kCounts; in [21], 80 nm; in series [22], 0 nm; in series [23] it was 0 nm. Moreover, the Activity worked out at 5 kCounts in series [24]; 2 kCounts in series [25]; 0 kCounts in series [26]; 0 nm in series [27]; 0 nm in series [28]; 0 nm in series [29]. Also, the results for the Activity in [30] and in series [31] were 100 nm and 5 nm, respectively.

For `CCSc1ccc(C(=O)Nc2nnc(-c3ccco3)o2)cc1`, the Activity entry was “Active” in series [32]; 250 kCounts in series [36]; 1151 nm in series [37]; 100 kCounts in series [38]; 185 nm in series [39]; 182 nm in series [40]. Also, the Activity is listed as 85 kCounts in series [41], 1123 nm in series [42] and 245 kCounts in [43]. The inhibition in series [33] was greater than 90%. The IC50 in [34] was found to be 20.7 µM. The 90% effect level in [35] (IC90) was put at 0.71 µg/mL (≈ 2.25 µM).

As for `Nc1nc2ccc(OC(F)(F)F)cc2s1` [RILUZOLE], the Activity result in series [44] was “Not Active”.
